Data published in PMC11249239 (PLOS ONE, 2024).
Where two headings read alike, the source gives them in different places.

What was measured:
[1] = target: T1, HDAC6 (Homo sapiens, UniProt Q9UBN7); experiment: In vitro HDAC isoform inhibition, purified recombinant HDAC6; assay type: biochemical
T1 construct: purchased PBS Bioscience [sic] (San Diego, CA); host or cells: Sf9 insect cells / baculovirus
T1 sequence (Q9UBN7 1-1215): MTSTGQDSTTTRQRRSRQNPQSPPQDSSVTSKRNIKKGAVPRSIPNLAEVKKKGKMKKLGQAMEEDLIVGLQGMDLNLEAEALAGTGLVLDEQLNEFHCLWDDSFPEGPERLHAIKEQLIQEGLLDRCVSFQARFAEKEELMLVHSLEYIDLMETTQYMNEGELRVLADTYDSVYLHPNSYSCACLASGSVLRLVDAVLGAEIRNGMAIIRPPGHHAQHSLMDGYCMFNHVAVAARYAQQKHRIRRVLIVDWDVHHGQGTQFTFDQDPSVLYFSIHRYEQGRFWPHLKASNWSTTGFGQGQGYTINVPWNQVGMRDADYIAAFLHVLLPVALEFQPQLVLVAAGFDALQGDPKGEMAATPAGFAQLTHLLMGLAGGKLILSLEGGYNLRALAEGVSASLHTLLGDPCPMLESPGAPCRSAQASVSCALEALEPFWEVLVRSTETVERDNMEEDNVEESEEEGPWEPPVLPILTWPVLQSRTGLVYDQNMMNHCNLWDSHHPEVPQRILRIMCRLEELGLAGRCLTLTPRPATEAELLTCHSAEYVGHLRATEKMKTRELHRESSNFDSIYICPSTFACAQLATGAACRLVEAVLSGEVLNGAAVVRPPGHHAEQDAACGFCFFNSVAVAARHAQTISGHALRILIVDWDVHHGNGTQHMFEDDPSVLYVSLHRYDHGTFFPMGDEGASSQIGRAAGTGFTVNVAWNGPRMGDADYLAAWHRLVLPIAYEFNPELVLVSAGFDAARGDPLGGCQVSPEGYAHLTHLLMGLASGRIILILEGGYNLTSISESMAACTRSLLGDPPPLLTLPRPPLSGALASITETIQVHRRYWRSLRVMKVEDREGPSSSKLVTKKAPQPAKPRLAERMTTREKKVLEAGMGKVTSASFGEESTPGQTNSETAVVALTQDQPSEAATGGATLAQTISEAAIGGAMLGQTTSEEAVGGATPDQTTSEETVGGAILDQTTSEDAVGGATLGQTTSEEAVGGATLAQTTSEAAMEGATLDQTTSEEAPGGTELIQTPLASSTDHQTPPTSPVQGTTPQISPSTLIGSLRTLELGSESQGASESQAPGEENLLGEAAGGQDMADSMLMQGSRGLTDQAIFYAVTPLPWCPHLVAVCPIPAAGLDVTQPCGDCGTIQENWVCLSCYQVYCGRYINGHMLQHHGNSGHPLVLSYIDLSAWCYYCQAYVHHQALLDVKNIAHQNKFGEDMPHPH
Source text: (§1) In vitro HDAC enzyme inhibition assays utilized HeLa cell extract for pan-HDACs with the substrate Fluor-Lys following the manufacturer’s protocol (BIOMOL/ENZO, Plymouth Meeting, PA). For isoform assays, purified HDAC1, HDAC3, and HDAC6 recombinant proteins produced by expressing epitope-tagged full-length proteins in the sf9 baculovirus expression vector system were purchased from PBS Bioscience (San Diego, CA). […] The reaction commenced with the addition of HDAC substrate at room temperature and proceeded for 30 minutes. Termination of the reaction was achieved by adding 50 μL of Fluor de Lys (TM) Assay Developer. The fluorophore was excited at 360 nm and emitted light at 460 nm. Relative fluorescence was measured using a FlexStation II plate reader (Molecular Devices, Sunnyvale, CA).

[2] = tested on: p-ATM/S1981; experiment: Western blot, phosphorylation of ATM; assay type: cell-based; conditions: MCF7 and MDA-MB-231; 1 μM; within 0.5 h
Source text: (§2) Following treatment of cells with SP-1-303 over a time course, total or nuclear proteins were extracted and analyzed on 4–20% trisglycine gradient sodium dodecyl sulfate polyacrylamide gel electrophoresis (SDS-PAGE). Subsequently, membranes were probed with antibodies targeting specific proteins in accordance with the manufacturers’ protocols, including ATM (ab78), p-BRCA1 (ab90528), BRCA1 (ab191042), p-p53/S15 (ab1431), acetylated H3K9 (ab12179) from Abcam, as well as p-ATM (# 5883) and p53 (#9282) from Cell Signaling, α-tubulin (T6793) and β-actin (A3854) from Sigma-Aldrich, ER-α (cat# MA1-80216, Invitrogen) and HDAC2 (BML-SA402. Enzo). Protein images were captured using ECL Prime Western Blotting Detection Reagents (Cat#. RPN2232, Amersham) and the Amersham Imager 600. For immunofluorescent analysis, formalin fixed cells were permeabilized with 0.1% Triton X-100 in TBS for 10 minutes at room temperature, followed by blocking with 1% Blocker BSA for 15 minutes at room temperature. Cells were then probed with a phospho-ATM monoclonal antibody (MA5-15185) and DyLight 488 goat anti-mouse IgG secondary antibody at room temperature. Actin was stained with DyLight 554 phalloidin, while nuclei were stained with 4’,6-diamidino-2-phenylindole dye (DAPI). Images were captured using a Nikon Epi Fluorescent microscopy.

[3] = target: T2, HDAC3 (Homo sapiens, UniProt O15379); experiment: In vitro HDAC isoform inhibition, purified recombinant HDAC3; assay type: biochemical; conditions: purified recombinant protein; ± margin of error of 95% confidence interval; read-out: IC50 HDAC inhibition activity in vitro, HDAC 3
T2 construct: purchased PBS Bioscience [sic] (San Diego, CA); host or cells: Sf9 insect cells / baculovirus
T2 sequence (O15379 whole entry, canonical isoform): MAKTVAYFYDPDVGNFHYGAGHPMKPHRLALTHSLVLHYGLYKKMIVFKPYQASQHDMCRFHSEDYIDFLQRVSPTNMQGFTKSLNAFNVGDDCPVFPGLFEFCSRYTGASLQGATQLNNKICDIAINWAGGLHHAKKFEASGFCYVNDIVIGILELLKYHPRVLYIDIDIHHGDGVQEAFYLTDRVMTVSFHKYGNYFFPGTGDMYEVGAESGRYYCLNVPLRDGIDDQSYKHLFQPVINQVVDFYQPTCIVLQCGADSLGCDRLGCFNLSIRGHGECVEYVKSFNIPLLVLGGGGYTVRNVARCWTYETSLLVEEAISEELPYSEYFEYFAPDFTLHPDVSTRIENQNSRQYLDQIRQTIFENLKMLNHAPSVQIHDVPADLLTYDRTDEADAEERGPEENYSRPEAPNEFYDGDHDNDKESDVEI
T2 sequence (Q9Y618 395-489 partner limits assumed): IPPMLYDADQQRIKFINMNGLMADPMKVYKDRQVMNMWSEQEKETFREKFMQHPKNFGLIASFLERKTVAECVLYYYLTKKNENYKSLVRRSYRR
Source text: as §1

[4] = tested on: phosphorylated BRCA1; experiment: Western blot, phosphorylated BRCA1; assay type: cell-based; conditions: 1 μM
Source text: as §2

[5] = tested on: MCF10A normal breast epithelial cells; experiment: Cell growth inhibition (CCK8 cytotoxicity assay), MCF10A; assay type: cell-based; conditions: 48 h treatment, read-out: Average EC50 ± SD, cell growth inhibition
[6] = tested on: MDA-MB-231 (TNB) cells; experiment: Cell growth inhibition (CCK8 cytotoxicity assay), MDA-MB-231; assay type: cell-based; conditions: 48 h treatment, read-out: Average EC50 ± SD, cell growth inhibition
[7] = tested on: MCF10A cells; experiment: Radiation clonogenic survival assay, MCF10A; assay type: cell-based; conditions: 0.3 μM for 24 h then graded γ-radiation, control 2.5 Gy
Experimental: Logarithmically growing cells were treated with vehicle (0.1% Dimethyl Sulfoxide) or SP-1-303 (0.3 μM) for 24 h followed by sham or γ-radiation using a Mark-30 irradiator with a 137Cs source at a fixed dose rate of 2.71 Gy/min. Cells were exposed to graded doses at room temperature. After 10–14 days, cells were fixed and stained with crystal violet, and colonies were counted. The surviving fractions of treated cells were normalized using the plating efficiencies of untreated controls. Radiation survival curves were generated by fitting to the single-hit, multitarget model.

[8] = tested on: phosphorylated p53; experiment: Western blot, phosphorylated p53; assay type: cell-based; conditions: 1 μM
Source text: as §2

Structure (SMILES): Cc1[nH]c2ccccc2c1C1=C(c2c(C)[nH]c3ccccc23)C(=O)N(CCCCCCC(=O)NO)C1=O [SP-1-303]
- ratio of inhibitory concentrations for HDAC6 to HDAC1 [1]: 36 fold
- IC50 ([1]; purified recombinant protein, ± margin of error of 95% confidence interval, read-out: IC50 HDAC inhibition activity in vitro, HDAC 6): 0.435 ± 0.035 µM
- Ratio (HDAC6:HDAC1) ([1]; ratio of IC50 values): 36
- phosphorylation of ATM/S1981 [2]: significantly enhanced
- IC50 [3]: 0.014 ± 0.002 µM
- phosphorylated BRCA1 ([4]; MCF7, within 1h to 2h): induction
- phosphorylated BRCA1 ([4]; MDA-MB-231): without significant alteration
- EC50 [5]: 12.2 µM
- EC50 ([5]; Homo sapiens, MCF-10A, 48 h): ~12 µM
- EC50 [6]: 1.22 ± 0.243 µM
- EC50 ([6]; Homo sapiens, MDA-MB-231, 48 h): 1.2 µM
- D0, radiation clonogenic survival [7]: 2.4 Gy
- phosphorylated p53 ([8]; MCF7, within 1h to 2h): induction
- phosphorylated p53 ([8]; MDA-MB-231): no phosphorylated p53
